Reference: PMC4581228, “Membrane Affinity of Platensimycin and Its Dialkylamine Analogs” (International Journal of Molecular Sciences, 2015)

Assays:
[1] = Tensiometry at the air-water interface (Wilhelmy method); format: physicochemical; settings: for log KAW (tens.): air-water partitioning coefficient, tensiometry, buffer pH 7.4; for Concentration at which changes of surface tension were detected: detected only at this concentration
Procedure: Surface tensions of subphase solutions with varying concentrations of platensimycin analogs were quantified using the Wilhelmy method with a piece of filter paper (Whatman, No. 1, 10.5 mm wide and 0.25 mm thick) used as a probe. The subphase buffer consisted of 200 mM KCl, 10 mM MgCl2, 5 mM CaCl2, 5 mM HEPES (Sigma-Aldrich, St. Louis, MO, USA) titrated to a pH of 7.4 with KOH. The pressure sensor (model 601, NIMA, Coventry, UK) was calibrated using a 100 mg weight. Water surface tension was measured to be […], after calibration. […] The surface activity and values for molecular area at the surface of the air-water interface (As), the partition coefficient at the air-water interface of the surface active molecule (KAW), and the membrane partitioning coefficient (Kmem), were determined as described previously.
The analysis of interfacial adsorption data was performed in the general framework of the Gibbs equation (1) dπ=∑Γidμi where dπ represents a small change in surface pressure, Γi is surface excess of component i and dμi is the small change of chemical potential of that component in the aqueous phase. For one adsorbing component, in an ideal case the Gibbs isotherm takes the form (2) dπ=RTΓd ln C where surface excess is defined as the surface density of molecules Γ = 1/(NAaS), NA is Avogadro’s number and aS is the area requirement for the molecule at the surface. The adsorbing substance gradually saturates the surface; the process that can be approximated by a Langmuir isotherm: (3) Γ=Γ∞lnKAW⋅C/1+KAW⋅C
Thus, beyond a certain bulk concentration, Γ approaches a constant value of Γ∞ and in that range of concentrations a linear relationship holds: (4) Γ∞=(1/RT)dπ/d ln C
To evaluate the partition coefficient for an air-water interface (KAW) and monolayers (Klip), the integral form of this equation attributed to Szyszkowski and previously applied to monolayers by Seelig and coworkers was used: (5) π=RTΓ∞ln(KAWC+1)
As was shown in Suomolainen 2004 [5], the x-intercept of the fitting line of experimental π-lnC curve would approximate the inverse partitioning coefficient 1/KAW, measured at the air-water interface.

[2] = tested on: A98S MscS in the cytoplasmic membrane of E. coli; assay: Patch-clamp of A98S MscS in excised spheroplast patches (activation midpoint shift); settings: for Redistribution / return of activation midpoint: within the observation time, Supplementary Figure S4; for log Kmem (patch-clamp): x-intercept of midpoint shift (∆p0.5) vs. concentration, native E. coli membrane, cytoplasmic side
Procedure: A pB10b vector was used to house and express the mscS gene in the triple-knockout E. coli strain MJF465 (mscS^−, mscL^−, mscK^−). The A98S MscS mutant, generated and partially characterized previously, was chosen for its higher sensitivity to inner leaflet drug partitioning.
Spheroplasts were generated as described previously. The experimental bath solution contained 400 mM sucrose, 200 mM KCl, 50 mM MgCl2, 5 mM CaCl2, and 5 mM HEPES and was titrated to pH 7.4 with KOH. Membrane patches were obtained on borosilicate glass pipettes and recorded at 30 mV pipette voltage set by a microelectrode amplifier. The midpoint of activation for channels in each patch was determined at two-minute intervals for the duration of the experiment via a 1 s ramp of saturating pressure. Analogs of platensimycin were pre-diluted in either ethanol or bath solution and perfused into the bath to achieve the desired concentration; control injections of equivalent volumes of ethanol had no effect on the midpoint of activation. Negative pressure (suction) was applied with the HSPC-1 high speed pressure clamp apparatus from ALA Scientific. Programming of the pressure protocols and data analysis was performed with the PClamp10 suite (Axon Instr., Foster City, CA, USA). The principle of lateral pressure measurements using two experimental systems, lipid monolayers and patch-clamp, is illustrated in Figure 1.
Similarly, the bulk-membrane partitioning coefficient (Kmem) was estimated from the values of relative increase in MscS activation pressure midpoint (p0.5) measured in patch-clamp experiments at different concentrations of intercalating agents by linear fit of Δp0.5 as a function of log(Cd).

Bacillus subtilis [3] = assay: Minimal inhibitory concentration with cultures of Bacillus subtilis; format: cell-based; settings: in experiments; organism not given
Excerpt: Principally, the efficacy of a drug depends on permeability (first selection), the degree of inhibition of the biological target, rates of drug efflux, drug breakdown, off target binding, and sequestration. In the case of platensimycin, the biological target is FabF. […] Details of docked conformations are presented in the Supplementary Figure S2A,B. Platensimycin and QD-11 show the same estimated binding affinity to FabF (C163Q) (PDB ID: 2GFX) and both are potent antibiotics. […] More specifically, platensimycin and myrtemycin were active against Gram-positive bacteria (S. aureus, MRSA; E. faecium, VRE and B. subtilis) and also Gram-negative bacteria, E. coli (but only when co-adminsitered with Phe-Arg-β-naphthylamide dihydrochloride, PAβND, which is a bacterial efflux pump inhibitor) as described in [18]. For the purpose of comparison with the computational docking predictions, here we present data for B. subtilis.
The bottom row in Table 1 presents minimal inhibitory concentrations (MIC) for all of the substances assayed with gram-positive and gram-negative bacteria. […] Despite the fact that the heterocyclic G271 partitioned into the membrane very well, and can be docked well into FabF, it had virtually no antimicrobial activity.

[4] = Langmuir monolayer pressure-area isotherms; format: physicochemical, E. coli; settings: for log Klip @ 20 mN/m, Measured: E. coli polar lipid monolayer, pH 7.4, ~20 °C; for Effective Molec. Area (ad): area taken by the drug in the monolayer, from slopes of log(ΔArea) vs. surface pressure; for log Klip @ 35 mN/m, Corrected: corrected to the monolayer-bilayer equivalence pressure 35 mN/m (Equation 6)
Procedure: All Langmuir monolayer experiments were done with a two-barrier rectangular 22 cm × 6 cm trough (MicroTrough XS, Kibron Inc., Helsinki, Finland) placed in an Airclean hood. A Dyneprobe metal alloy needle was used as the Wilhelmy plate. Lipids used were E. coli total polar lipid extract from Avanti Polar Lipids (Alabaster, AL, USA) dissolved in chloroform or hexane to a final concentration of 0.2 mg/mL. Distribution of lipids onto the subphase was accomplished using a gastight 50 µL Hamilton® syringe (Hamilton, Reno, NV, USA). The subphase buffer was identical to the tensiometry buffer. Pressure—Area isotherms (monolayers) were performed at room temperature (~20 °C) from 114 to 18 cm^2 at a barrier rate of 20 mm/min. For each analog, isotherms were measured at least four times at every concentration.
In Langmuir experiments, the value of the bulk-monolayer (Klip) partitioning coefficient was determined in a similar way, using the deviations of surface pressure of monolayers measured at constant area. […] However, at this compression, strongly intercalating substances produced pressure shifts beyond the collapse pressure of 45–47 mN/m, which forced us to score Δπ from surface pressure of 20 mN/m achieved at ~80 Å^2/molecule. Klip1 obtained in this expanded state was than corrected for the lateral pressure increase from π1 = 20 to π2 = 35 mN/m, which has the same form as Equation (7) in [5]: (6) ln(Klip2)=ln(Klip1)−(π2−π1)adNA/RT
Here ad is the area taken by the drug in the plane of the monolayer.
To estimate ad we assumed equilibrium between the drug in the subphase and in the monolayer and equated its chemical potentials in the two phases: (7) μ0+RTln(χd)=μ0σ+RTln(χdσ)+π⋅adNA
The right part with indexes σ represents the surface parameters of standard chemical potential µ0σ and drug mole fraction χdσ , whereas the left part represents the bulk parameters. Defining lnKlip = µ0σ −µ0 one can rearrange this equation as (8) lnKlip−lnχdσ−lnχd=π⋅adNA/RT
Differentiating with respect to π gives (9) −RTd(lnχdσ)/NAdπ=ad
Thus the molecular area of the drug defines the slope of χdσ , with which the drug re-partitions back to the subphase as surface pressure π increases. We further assume that at a given surface pressure, insertion of nd drug molecules into the film comprised of nL lipid molecules with initial area A0, should dilate the film by ΔA. (10) nd/nL=ΔA/A0⋅aL/ad
The parameter aL, the area per lipid at that particular pressure, is taken from the control pressure-area isotherm with no drug. The mole fraction of the drug in the monolayer χdσ = nd/(nd + nL) is related to the extent of monolayer dilation ΔA (11) ΔA=ad⋅nd=adnL⋅χdσ/1−χdσ
On the assumption that χdσ is small, ΔA is proportional to the mole fraction of the drug. In Equation (4) we substitute and obtain (12) −kTd(lnΔA)/dπ=ad
Thus, the molecular area of the drug can be determined from the logarithmic slope of ΔA on surface pressure. Once we know ad, we can introduce a correction to Klip due to lateral pressure change ([…]). In addition, we can estimate the molar ratio of drug-to-lipid, the mole fraction χdσ and the partitioning constant. From the extent of monolayer dilation at a constant surface pressure (chosen to be 20 mN/m), the apparent bulk-monolayer partitioning coefficient Klip could be independently estimated as Klip=χdσ/χd , where […] = Cd/55 represents the drug mole fraction in the subphase.

Bacillus subtilis [5] = settings: cited from earlier work; for MIC for B. subtilis: cultures of Bacillus subtilis, ref 22 (table title); for Activity against B. subtilis: Gram-positive
E. coli = tested on: E. coli; set-up: method as in PMID 17707686; settings: Gram-negative; only when co-administered with Phe-Arg-β-naphthylamide dihydrochloride (PAβND), efflux pump inhibitor; cited from earlier work
E. faecium, VRE = tested on: E. faecium, VRE; set-up: method as in PMID 17707686; settings: Gram-positive; cited from earlier work
S. aureus, MRSA = tested on: S. aureus, MRSA; set-up: method as in PMID 17707686; settings: Gram-positive; cited from earlier work

Row | Compound | log KAW (tens.) [1] | Concentration at which changes of surface tension were detected [1] | Redistribution / return of activation midpoint [2] | Biological / antibiotic activity (Bacillus subtilis [3]) | log Klip @ 20 mN/m, Measured [4] | Effective Molec. Area (ad) [4] | log Klip @ 35 mN/m, Corrected [4] | MIC for B. subtilis (Bacillus subtilis [5]) | log Kmem (patch-clamp) [2] | Effect on surface tension ([1]; up to 30 µM) | Activity against E. coli (E. coli) | Effective Molec. Area (ad) ([4]; listed as platensimycin) | Activity against E. faecium, VRE (E. faecium, VRE) | Activity against S. aureus, MRSA (S. aureus, MRSA) | Activity against B. subtilis (Bacillus subtilis [5]) | Initial unilateral insertion into the membrane relative to flipping across the membrane ([2]; sequential additions) | Concentration in the subphase at which presence is detectable on isotherms [4]
1 | O=C(CCN(Cc1cccnc1)Cc1cccnc1)Nc1c(O)ccc(C(=O)O)c1O [G258] | 4.2 | 10^−4 M | relatively fast | essentially no biological activity | 5.9 | 18 Å^2 | 5.6 | >512 µg/mL |  |  |  |  |  |  |  |  | 
2 | Cn1ccnc1CN(CCC(=O)Nc1c(O)ccc(C(=O)O)c1O)Cc1nccn1C [G262] | 4.2 | 10^−4 M | did not return back | essentially no biological activity | 5.9 | 17 Å^2 | 5.6 | >512 µg/mL |  |  |  |  |  |  |  |  | 
3 | O=C(CCN(Cc1ccc2c(c1)OCO2)Cc1ccc2c(c1)OCO2)Nc1c(O)ccc(C(=O)O)c1O [G271] | 4.5 |  | did not return back | no antibiotic activity | 6.1 | 18 Å^2 | 5.8 | >512 µg/mL | 6.1 |  |  |  |  |  |  |  | 
4 | CC12C[C@@]34C=CC(=O)[C@@](C)(CCC(=O)Nc5c(O)ccc(C(=O)O)c5O)C3[C@H](CC1C4)O2 (stereo partly drawn) [PL, platensimycin] | 4.6 |  |  |  | 6.6 | 34 Å^2 | 6.1 | 2 µg/mL | 5.0 | no visible effect | active | 31–34 Å^2 | active | active | active |  | 
5 | CCCCN(CCCC)CCC(=O)Nc1c(O)ccc(C(=O)O)c1O [QD-06] | 4.1 |  |  |  | 5.0 | 30 Å^2 | 4.5 | 128 µg/mL | 5.5 |  |  |  |  |  |  |  | 
6 | CC1(C)C2CC=C(CN(CCC(=O)Nc3c(O)ccc(C(=O)O)c3O)CC3=CCC4CC3C4(C)C)C1C2 [QD-11, myrtemycin] | 6.1 |  |  |  | 6.7 | 31 Å^2 | 6.2 | 4 µg/mL | 5.7 |  | active |  | active | active | active | five to six times faster | 10^−7 M
7 | CC1(C)C2CC=C(CNCCC(=O)Nc3c(O)ccc(C(=O)O)c3O)C1C2 (stereo not drawn) [QL-03] | 5.0 |  |  |  | 5.6 | 28 Å^2 | 5.2 | >256 µg/mL | 6.1 |  |  |  |  |  |  |  | 
